Reference: patent publication US10975059B2, “Small molecule BRD4 modulators for HIV epigenetic regulation” (The Board of Regents of The University of Texas System, priority 2017, dated 2021)
pIC50: −log10 of the molar value.

Legend:
[1] = test system: RNAPII; experiment: Western blot of phosphorylated RNAPII (Ser 2 CTD) in J-Lat cells; format: cell-based; settings: vs PMA alone
Procedure: (§1) Target protein expression in WT and BRD4-KO J-Lat cells (10.6 full length) were measured by western blotting. […] The cells were harvested, washed and then lysed in NP-40 cell lysis buffer (containing 20 mM Tris-HCl, […] of NaCl, 0.2 mM EDTA, 1% NP40, protease inhibitor cocktail, and 1 mM PMSF) by rotation at RT for 1 hour. Cell lysates were centrifuged at 4° C. and the supernatants were collected, followed by measurement of total protein concentration in the supernatants by using Microplate BCA Protein Assay Kit. 20 μg proteins were separated using SDS-PAGE gel and then transferred to Immuno-Blot PVDF Membrane. The membrane was blocked (5% skimmed milk powder in TBST) and then incubated with individual protein-specific antibodies (CDK9, Cyclin T1, Cyclin T2, ELL2, p-RNA Pol II-CTD (Ser2), BRD2, BRD4, NF-κB, or cellular GAPDH) for overnight at 4° C. After washing three times in TBST, the membrane was incubated with anti-rabbit or anti-mouse IgG-HRP, depending on the primary antibody used. The membrane was incubated in Super Signal West Pico Chemiluminescent Substrate. Molecular weights of target proteins were assessed by comparing with markers.

[2] = test system: HIV in unactivated human CD4 T cells; experiment: HIV in un-activated (resting) CD4 T cells (intracellular p24); format: cell-based; settings: 2 μM and 4 μM, Day 6
Procedure: We also evaluated the impact of ZL0580 on HIV in un-activated (resting) CD4 T cells. Normal PBMCs were not stimulated but directly infected with HIV by spinoculation. 24 hours after HIV infection, cells were extensively washed and treated with ZL0580 (2 μM and 4 μM) or not (NC). As expected, compared to activated cells, HIV replication kinetics in un-activated CD4 T cells is slower.

[3] = biological target: T1, non-BET bromodomain protein CBP (Homo sapiens, UniProt Q92793); experiment: TR-FRET binding assay, CBP
T1 construct: purchased Cayman Chemical
T1 sequence (Q92793 1085-1192 limits assumed): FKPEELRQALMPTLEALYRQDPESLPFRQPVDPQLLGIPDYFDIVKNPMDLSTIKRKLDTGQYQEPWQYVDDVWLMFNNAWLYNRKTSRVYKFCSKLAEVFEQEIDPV
Procedure: A series of concentrations of the compound from 0.01 nM to 100 μM were added into a 384 well test plate and mixed with other reaction components based on the instructions from vendor followed by incubation 1 h at room temperature. […] The plates were read in time-resolved format by exciting the sample at 340 nm and reading emissions at 620 and 670 nm, using a 100 μs delay and a 500 μs window at a Tecan M1000 pro reader.

[4] = test system: non-specific cellular proteins; experiment: Binding to a broader panel of non-specific cellular proteins
[5] = test system: HIV in BRD4-KO J-Lat cells; format: cell-based
[6] = test system: HIV transcription in J-Lat cells; experiment: qPCR of HIV RNAs (Gag, 3'-LTR) in J-Lat cells; format: cell-based; settings: for HIV mRNAs (Gag and 3'-LTR RNA levels): PMA-activated J-Lat, 24 hours after treatment
[7] = test system: CDK9 binding to Tat; experiment: Tat Co-IP, CDK9 binding, J-Lat cells; format: cell-based; settings: vs PMA alone, 24 hours
Procedure: Treated J-Lat cells were harvested, washed and lysed in 1 ml NP-40 cell lysis buffer as described above in western blotting. The lysate was cleared by centrifugation and the supernatant was collected. Protein concentration in collected supernatant was measured (Microplate BCA Protein Assay Kit). Equal amounts of proteins from different treatments were incubated with […] of anti-Tat (Thermo Fisher, Cat. No. MA1-71509) or anti-BRD4 (Thermo Fisher, Cat. No. 730037) antibody or normal mouse IgG (Cell Signaling, Cat. No. 5415) for overnight at 4° C. The immune complexes were precipitated by 50 μl protein G-conjugated magnetic beads (Thermo Fisher, Cat. No. 10003D). Beads were washed 6 times using cold NP-40 cell lysis buffer and then subjected to SDS-PAGE electrophoresis. The membranes were immunoblotted with anti-CDK9 primary antibody, followed by incubation with HRP-conjugated secondary antibody.

[8] = test system: HIV in human PBMCs; experiment: qPCR of HIV DNA and Gag RNA in in vitro infected PBMCs; format: cell-based; settings: PHA-activated PBMCs, 4 μM
[9] = test system: Tat at HIV 5'-LTR; experiment: CHIP-qPCR, Tat recruitment to HIV promoter; format: cell-based; settings: J-Lat, 10 μM, 24 hours
Procedure: ChIP assay was performed using a ChIP-IT Express Kit (Active Modify, USA) according to the manufacturer's instructions. […] Cells were harvested and washed. Cell pellets were re-suspended in 10 ml PBS buffer and fixed with 37% formaldehyde to cross-link DNA and proteins. The fixation reaction was stopped by adding 1.1 ml of 10× Glycine for 5 min at RT. Cells were centrifuged and the supernatants were removed, followed by re-suspension of cells in ice-cold Lysis Buffer on ice for 30 min. Cells were centrifuged at 5,000 rpm for 10 min to pellet the nuclei. Nuclei pellets were re-suspended in 700 μl shearing buffer plus 3.2 μl of PIC and 3.2 μl of PMSF, and were then sonicated using the determined conditions. Sheared chromatin samples were used to set up ChIP reactions by adding the magnetic beads and 5 μg of anti-Tat (1 mg/ml, Thermo Fisher, MA1-71509) or control mouse IgG (2.5 mg/ml, Cell Signaling, #5415) antibody (overnight rotation at 4° C.). After several times of washing by ChIP buffers 2, the chromatin was reverse cross-linked and treated with proteinase K. The eluted DNA were cleaned up with phenol-chloroform and used in real time-PCR. The results were analyzed by the fold enrichment method with the formula % enrichment=2−(CT IP−CT mock).

[10] = test system: PMA-induced HIV activation in J-Lat cells (10.6); experiment: HIV-suppression model, PMA-stimulated J-Lat cells (GFP, flow cytometry); format: cell-based; settings: 24 hours; for effect on PMA-induced HIV activation (GFP+%): PMA + compound 10 μM
[11] = test system: HIV particles from RV21 PBMC; experiment: HIV particles in culture supernatants, reporter TZM-bl assay; format: cell-based; settings: vs no treatment control
Description: We next assessed assess the HIV-suppressive activity of ZL0580 ex vivo. RV21 is ART naïve, chronic HIV infection established by US MHRP and use of PBMC samples from this cohort in our group has been previously published (25). PBMC from RV21 subjects (n=8) were stimulated with PHA to induce HIV transcriptional activation in the absence (0 Mm) or presence of ZL0580 ([…]).

[12] = test system: human PBMCs; format: cell-based
[13] = test system: ELL2; experiment: ELL2 protein (WB) and mRNA (Q-PCR) in J-Lat cells; format: cell-based; settings: vs PMA alone, WT J-Lat, 24 hours
Procedure: as §1

[14] = biological target: BRD4 BD2 (Homo sapiens, UniProt O60885); experiment: TR-FRET binding assay, BRD4 BD2
[15] = biological target: BRD4 BD1 domain (Homo sapiens, UniProt O60885); experiment: TR-FRET binding assay, BRD4 BD1
[16] = test system: HIV transcription in PBMC of HIV-infected subjects; experiment: Ex vivo HIV Gag RNA in PBMCs of viremic HIV-infected subjects (RV21); format: cell-based; settings: 2 days
[17] = test system: J-Lat cells; experiment: J-Lat cell viability (Aqua blue, flow cytometry)
[18] = test system: BRD4 at HIV 5'-LTR; experiment: CHIP-qPCR, BRD4 binding to HIV promoter; format: cell-based; settings: activated and resting J-Lat, vs no compound control
[19] = test system: HIV (US-1 strain) in human CD4 T cells; format: cell-based; settings: for HIV infection in activated CD4 T cells (intracellular p24): 0-8 μM, three days after viral exposure
[20] = test system: HIV LTR chromatin in J-Lat cells; experiment: High-resolution MNase nucleosomal mapping of HIV LTR; format: cell-based; settings: 10 μM 24 hours, then PMA 24 hours, vs NC
[21] = biological target: CDK9 binding to BRD4 (Homo sapiens, UniProt O60885); experiment: BRD4 Co-IP, CDK9 binding, J-Lat cells; format: cell-based; settings: vs PMA alone, 24 hours
[22] = test system: RV254 PBMCs; experiment: Viability of RV254 PBMCs; format: cell-based, human; settings: vs ART alone or NC
[23] = test system: latent HIV in J-Lat cells (10.6); experiment: HIV-activation screening in J-Lat cells (GFP, flow cytometry); format: cell-based; settings: compound alone, 10 μM, 24 hours
[24] = test system: BD1 and BD2 of BET proteins (BRD4, BRD2, BRD3, BRDT); experiment: TR-FRET binding to BD1 and BD2 of BET proteins
Description: Details are available in the Supplementary Methods.

O=C(Nc1ccc(C(F)(F)F)cc1)Nc1ccc(S(=O)(=O)N2CCCC2C(=O)Nc2ccccc2)cc1 (stereo in doubt) [ZL0580, (R)—N-Phenyl-1-((4-(3-(4-(trifluoromethyl)phenyl)ureido)phenyl)sulfonyl)pyrrolidine-2-carboxamide]
RNAPII activation (phosphorylation of CTD Ser2) [1]: reduced RNAII activation | HIV in unactivated CD4 T cells (p24+%) [2]: dose-dependently suppresses HIV in unactivated CD4 T cells | pIC50 [3]: < 5.00 | binding activity to non-specific cellular proteins [4]: no or weak binding activity | Gag and 3'-LTR RNA expression, vector control cells [5]: substantially inhibit Gag and 3′-LTR RNA expression | HIV suppression (GFP) in BRD4-KO cells [5]: failed to induce HIV suppression in BRD4-KO cells | HIV suppression in BRD4-KO cells with exogenous BRD4 expression [5]: restored to large extent the ability of ZL0580 to suppress HIV in these cells | inhibition of Gag and 3'-LTR RNA, BRD4-KO cells [5]: largely abrogated in the BRD4-KO cells | HIV mRNAs (Gag and 3'-LTR RNA levels) [6]: reduces both Gag and 3′-LTR RNA levels | HIV reactivation by LRAs after pre-treatment ([6]; resting J-Lat, single dose 10 μM for 3 days, then SAHA or Prostratin): renders J-Lat cells more resistant to HIV reactivation by SAHA or Prostratin | kinetics of HIV transcription (3'-LTR RNA) ([6]; single treatment 10 μM, PMA-activated or resting, Day 2, 7, 14): suppresses both PMA-stimulated and basal HIV transcription through Day 14 after treatment | CDK9 binding to Tat [7]: reduced CDK9 binding to Tat | HIV transcription (Gag RNA) in PBMCs [8]: reduced HIV transcription in PBMCs | cell-associated HIV DNA [8]: did not significantly alter HIV DNA levels | recruitment of Tat to HIV promoter [9]: reduced Tat recruitment to HIV promoter | dose dependence of suppression of PMA-induced HIV activation ([10]; PMA + 0, 1, 10, 20 μM): suppresses PMA-induced HIV activation in dose-dependent manner | effect on PMA-induced HIV activation (GFP+%) [10]: suppresses PMA-induced HIV activation | production of HIV particles in cell culture supernatants [11]: significantly reduced | concentrations without significant PBMC death ([12]; 0-80 μM): below 40 μM | PBMC viability ([12]; 8 μM vs NC, PHA-activated, 3 days): comparable between NC and ZL0580 treatment | ELL2 protein [13]: substantially reduced ELL2 protein | pIC50 [14]: 5.97 | pIC50 [15]: 6.79 | HIV Gag mRNA ex vivo ([16]; PHA-stimulated RV21 PBMC (n=8)): suppress HIV transcription ex vivo in all eight PBMC samples | reduction of RNA levels in some subjects ([16]; PHA-stimulated RV21 PBMC): greater than 10 fold | concentrations without significant cell death ([17]; 0-80 μM, 1 & 3 days): below 40 μM | cell death vs NC ([17]; 10 μM, Day 2, 7 and 14, PMA-activated and un-stimulated): did not cause significant cell death | BRD4 binding to HIV promoter [18]: promoted BRD4 binding to HIV promoter | HIV infection in activated CD4 T cells (intracellular p24) [19]: suppress HIV in activated human CD4 T cells in a dose-dependent manner | productive HIV infection in CD4 T cells ([19]; single treatment 8 μM): almost complete loss of productive HIV infection in CD4 T cells | nucleosomal DNA protection in HIV LTR [20]: enhanced nucleosomal DNA protection in the majority of amplicon regions (6-20) | CDK9 binding to BRD4 [21]: enhanced CDK9 binding to BRD4 | toxicity to RV254 PBMCs [22]: did not cause significant toxicity to these cells

Cc1sc2c(c1C)C(c1ccc(Cl)cc1)=N[C@@H](CC(=O)OC(C)(C)C)c1nnc(C)n1-2 [JQ1, reference compound]
RNAPII activation (phosphorylation of CTD Ser2) [1]: potentiated its activation | HIV mRNAs (Gag and 3'-LTR RNA levels) [6]: enhances their levels | CDK9 binding to Tat [7]: enhanced CDK9 binding to Tat | recruitment of Tat to HIV promoter [9]: enhanced binding of Tat to HIV promoter | effect on PMA-induced HIV activation (GFP+%) [10]: synergistically enhances PMA-stimulated HIV activation | ELL2 protein [13]: increased its level | activation of latent HIV (GFP expression) [23]: activates HIV | BRD4 binding to HIV promoter [18]: reduced this binding | nucleosomal DNA protection in HIV LTR [20]: reduced nucleosomal DNA protection in several amplicon regions | binding to BD1 and BD2 of BET proteins [24]: non-selectively binds to both BD1 and BD2 all four BET proteins

Cc1cc(N=Nc2ccc(S(=O)(=O)NC3CCCC3)cc2)c(N)cc1O [ZL0454]
effect on PMA-induced HIV activation (GFP+%) [10]: synergistically enhanced PMA-induced HIV activation | activation of latent HIV (GFP expression) [23]: modestly activate HIV | HIV infection in activated CD4 T cells (intracellular p24) [19]: did not suppress HIV in CD4 T cells

COC(=O)[C@@H]1CCCN1S(=O)(=O)c1ccc(NC(=O)Nc2cccc(C(F)(F)F)c2)cc1 [ZL0506]
effect on PMA-induced HIV activation (GFP+%) [10]: modestly suppress HIV
